Measured values taken from USRE30241E, “Esters of 3-(hydroxy or hydroxymethyl)-4-hydroxyphenyl aminomethyl ketones” (Sterling Drug Inc., priority 1970, dated 1980).
Where two headings read alike, the source gives them in different places.

Columns and labels:
[1] = system: carbachol- or histamine-induced bronchoconstriction; test: Bronchodilator Test Method I, anesthetized dog, intravenous activity; format: in vivo; conditions: Canis lupus familiaris, read-out: Bronchodilatation; for inhibition in vivo at 0.0013 mg/kg: 1.3 mcg/kg i.v.; for inhibition in vivo at 0.0065 mg/kg: 6.5 mcg/kg i.v.; for inhibition in vivo at 0.0325 mg/kg: 32.5 mcg/kg i.v.; for inhibition in vivo at 0.008 mg/kg: 8 mcg/kg i.v.; for inhibition in vivo at 0.032 mg/kg: 32 mcg/kg i.v.; for inhibition in vivo at 0.128 mg/kg: 128 mcg/kg i.v.
Method in brief: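 Pentobarbital-anesthetized (30 mg/kg i.v.), open-chest, artificially ventilated dogs were given i.v. carbachol (4-6 µg/kg) or histamine diphosphate (35-45 µg/kg). Test compound was given i.v. mixed with, after, or 1-10 min before the constrictor.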

heart rate = test: Cardiovascular studies: effect on the heart rate in the anesthetized dog; format: in vivo
Description: The effect of a rapid intravenous injection on the heart rate the heart rate was conducted in anesthetized dogs under normal respiration. A few open-chest dogs were also tested. Increase in heart rate was measured by using an electrocardiograph attached to the dog. Readings were taken every 0.5-1 minute for the first 10 minutes and every 2-5 minutes thereafter until recovery. In some cases, several doses and more than one compound were tested alternately in the same dog. The blood pressure effect was simultaneously recorded.

[2] = system: carbachol- or histamine-induced bronchoconstriction; test: Bronchodilator Test Method I, anesthetized dog, intraduodenal activity; format: in vivo; conditions: Canis lupus familiaris, read-out: Bronchodilation; for inhibition in vivo at 0.032 mg/kg: 32 mcg/kg (salt) intraduodenal; for inhibition in vivo at 0.128 mg/kg: 128 mcg/kg (salt) intraduodenal
Description: Male and female dogs weighing 9-18 kg. each were anesthetized with pentobarbital sodium (30 mg./kg. i.v.). Each animal, with thorax opened at the midsternum, was maintained under artificial ventilation using a constant volume pump (250 ml./stroke; 10 to 12 strokes per minute) attached to the tracheal cannula. The flow of air was controlled by a glass or plastic valve which closed and opened respectively on inflow and outflow of the air to and from the tracheal cannula. Bronchoconstriction and/or bronchodilatation were measured from changes in the basal airway pressure reflected by a transducer attached to the sidearm of the cannula relayed to a polygraph.
Control bronchoconstrictions were induced by intravenous injections of carbachol (choline chloride carbamate) in doses ranging from 4 to 6 micrograms per kilogram or histamine diphosphate in doses ranging from 35 to 45 micrograms per kilogram. In the majority of test animals, the above doses of constrictor agents produced a 100-200 percent increase in the normal airway pressure or amplitude.
Injections were repeated at 20-30 minutes.
In intraduodenal studies, in the dog prepared for bronchodilation measurements, the duodenal segment of the small intestine was made easily accessible through a small mid-line incision in the abdomen. The test solution was injected into the duodenum using a fine needle. Commencing 5 minutes after medication, the degree and duration of bronchodilation were tested by injecting a control dose of carbachol or histamine at intervals of 30-60 minutes until the recovery or near-recovery was apparent. In some dogs showing an early recovery, a reference drug was also tested in the same dog 1.5-2 hours after the first medicine.

[3] = system: guinea pig bronchioles constricted by carbachol; test: Bronchodilator Test Method II, in vitro perfused guinea pig lung
Description: In this method bronchodilator activity in vitro was determined by testing the effect of graded doses of the test compounds on guinea pig bronchioles constricted by carbachol, using the technique reported by Sollman and von Oettingen, Proc. Soc, Exp. Biol. Med., 25,692 (1928) as modified by Tainter, Pedden, and James, J. Pharm. Exp. Ther., 51, 371 (1934) and by Luduena, von Euler, Tullar, and Lands, Arch. intern. Pharmacol., III, 392 (1957).

`CC(=O)Oc1ccc(C(O)CNC(C)(C)C)cc1OC(=O)C12CC3CC(CC(C3)C1)C2` (stereo not drawn) [Example 148, 3-(1-adamantanecarbonyloxy)-4-acetoxy-alpha-(tert-butylaminomethyl)benzyl alcohol methanesulfonate] was tested, and the inhibition in vivo at 0.0013 mg/kg ([1]; 5 min, 5 min) was 21%, the inhibition in vivo at 0.0065 mg/kg ([1]; 5 min, 5 min) was 47% and the inhibition in vivo at 0.0325 mg/kg ([1]; 5 min, 5 min) was 95%. It also gave an inhibition in vivo at 0.0013 mg/kg ([1]; 0.5 h, 30 min) of 1%, an inhibition in vivo at 0.0065 mg/kg ([1]; 0.5 h, 30 min) of 30% and an inhibition in vivo at 0.0325 mg/kg ([1]; 0.5 h, 30 min) of 66%. The inhibition in vivo at 0.0013 mg/kg ([1]; 1 h, 60 min) was 10%, the inhibition in vivo at 0.0065 mg/kg ([1]; 1 h, 60 min) was 23% and the inhibition in vivo at 0.0325 mg/kg ([1]; 1 h, 60 min) was 54%. The inhibition in vivo at 0.0013 mg/kg ([1]; 2 h, 120 min) was 16%, the inhibition in vivo at 0.0065 mg/kg ([1]; 2 h, 120 min) was 15% and the inhibition in vivo at 0.0325 mg/kg ([1]; 2 h, 120 min) was 39%. The inhibition in vivo at 0.0065 mg/kg ([1]; 3 h, 180 min) was 13%, the inhibition in vivo at 0.0325 mg/kg ([1]; 3 h, 180 min) was 28% and the inhibition in vivo at 0.0325 mg/kg ([1]; 4 h, 240 min) was 14%. For the same molecule, the “Mean Maximal Increase in the Heart Rate” value (heart rate; 6.5 mcg/kg (salt) i.v.) was 32 Beats/Minute and the “Mean Maximal Increase in the Heart Rate” value (heart rate; 32.5 mcg/kg (salt) i.v.) was 58 Beats/Minute.
`CC(=O)OCc1cc(C(O)CNC(C)(C)C)ccc1OC(=O)c1ccc(C)cc1` (stereo not drawn) [Example 150, 3-acetoxymethyl-4-(p-toluyloxy)-alpha-(tert-butylaminomethyl)benzyl alcohol methanesulfonate] was tested, and the inhibition in vivo at 0.008 mg/kg ([1]; 5 min, 5 min) was 42%, the inhibition in vivo at 0.032 mg/kg ([1]; 5 min, 5 min) was 64% and the inhibition in vivo at 0.128 mg/kg ([1]; 5 min, 5 min) was 85%. For the same molecule, the inhibition in vivo at 0.008 mg/kg ([1]; 0.5 h, 30 min) was 37%, the inhibition in vivo at 0.032 mg/kg ([1]; 0.5 h, 30 min) was 66% and the inhibition in vivo at 0.128 mg/kg ([1]; 0.5 h, 30 min) was 87%. For the same molecule, the inhibition in vivo at 0.008 mg/kg ([1]; 1 h, 60 min) was 44%, the inhibition in vivo at 0.032 mg/kg ([1]; 1 h, 60 min) was 54% and the inhibition in vivo at 0.128 mg/kg ([1]; 1 h, 60 min) was 67%. It also gave an inhibition in vivo at 0.008 mg/kg ([1]; 2 h, 120 min) of 44%, an inhibition in vivo at 0.032 mg/kg ([1]; 2 h, 120 min) of 40% and an inhibition in vivo at 0.128 mg/kg ([1]; 2 h, 120 min) of 60%. It also gave an inhibition in vivo at 0.008 mg/kg ([1]; 3 h, 180 min) of 32%, an inhibition in vivo at 0.032 mg/kg ([1]; 3 h, 180 min) of 30% and an inhibition in vivo at 0.128 mg/kg ([1]; 3 h, 180 min) of 52%. For the same molecule, the inhibition in vivo at 0.008 mg/kg ([1]; 4 h, 240 min) was 20%, the inhibition in vivo at 0.032 mg/kg ([1]; 4 h, 240 min) was 0% and the inhibition in vivo at 0.128 mg/kg ([1]; 4 h, 240 min) was 24%. For the same molecule, the inhibition in vivo at 0.032 mg/kg ([2]; 5 min, 5 min) was 12%, the inhibition in vivo at 0.128 mg/kg ([2]; 5 min, 5 min) was 68% and the inhibition in vivo at 0.032 mg/kg ([2]; 0.5 h, 30 min) was 12%. It also gave an inhibition in vivo at 0.128 mg/kg ([2]; 0.5 h, 30 min) of 68%, an inhibition in vivo at 0.032 mg/kg ([2]; 1 h, 60 min) of 12% and an inhibition in vivo at 0.128 mg/kg ([2]; 1 h, 60 min) of 61%. The inhibition in vivo at 0.032 mg/kg ([2]; 2 h, 120 min) was 0%, the inhibition in vivo at 0.128 mg/kg ([2]; 2 h, 120 min) was 61% and the inhibition in vivo at 0.032 mg/kg ([2]; 3 h, 180 min) was 0%. The inhibition in vivo at 0.128 mg/kg ([2]; 3 h, 180 min) was 45%, the inhibition in vivo at 0.128 mg/kg ([2]; 4 h, 240 min) was 39% and the “ED50 (printed in brackets, footnote **ED50)” value ([3]; carbachol (Doryl) 1:5 million) was 9.3 µg (base). For the same molecule, the “Duration, Mean” value ([3]; dose 10 mcg (base)) was 25.5 ± 16.2 min.
